Measured values published in patent US11882828B2, “Mosquito vector control compositions, methods and products utilizing same” (priority 2015, dated 2024).

How the values were obtained:
Format in all cases: in vivo
An. stephensi [1] = experiment: Example B5: bottle based cross resistance study (CDC bottle assay)
Procedure: (§1) Based on the “CDC bottle assay” (described at http://www.cdc.gov/malaria/resources/pdf/fsp/ir_manual/ir_cdc_bioassay_en.pdf) 1 ml of ethanol containing a test compound at a defined concentration was added to a 250 ml glass bottle and the bottles were placed on a rolling table to coat the inner surfaces as the solvent evaporated. Once dry, twenty five non-blood fed adult female mosquitoes of the appropriate species and strains (each three day old) were aspirated from the stock culture and gently blown into the exposure bottles. The lid of the bottle was replaced and the bottle placed upright out of direct sun light under standard culture conditions, nominally 28C and 60-80% relative humidity.
(§2) A stopwatch was started, and the assessment of the knock-down were made after 15 minutes and 60 minutes. A mosquito was said to be knocked down if it was unable to stand, following the CDC definition. The bottles were replaced in an upright position when not being assessed.
(§3) After one hour the mosquitoes were carefully removed from the bottle with an aspirator and placed in a recovery cup. The mosquitoes were supplied with a 10% sucrose solution on a cotton wool bung, and stored under culture conditions. Assessments of the mortality were made after 24 hours.
(§4) Each treatment was replicated a minimum of four times, with the mean knockdown or mortality recorded. In each study, a set of bottles was infested with a known insecticide susceptible strain of mosquitoes from the same genera as the resistant strains.

An. Gambiae Kisumu sus [2] = experiment: as above; details: Kisumu sus; for mortality at 25 ppm: 24 h
Procedure: as §1, §2, §3, §4

FUMOZ = experiment: as above; details: Anopheles funestus, 24 h, 25 ppm, after 24 hours, FUMOZ
Procedure: as §1, §2, §3, §4

An. Gambiae Tiassalé [3] = experiment: as above
Procedure: as §1, §2, §3, §4

VK7 = experiment: as above; details: Anopheles coluzzii, 24 h, after 24 hours
Procedure: as §1, §2, §3, §4

Aedes aegypti = experiment: Example B7: evaluation of insecticide impregnated polymer surfaces; details: AI content 2 wt %, polymer 4 to 6 weeks old; for mortality: 24 hours after exposure; for knock-down: after one hour
Text: (§5) Preparation of polymeric sheets: Certain methoxyacrylate were Impregnated into three polymers: LDPE (low density polyethylene), HDPE (high density polyethylene) and PP (polypropylene) in different concentrations by mixing the respective polymer with a compound at high temperatures and the resultant polymeric material were then mould into thin discs or plaques.
(§6) Twenty four hours prior to the relevant assessment intervals, three to five day old non-blood fed adult mosquitoes were taken from the culture and lightly anaesthetised with carbon dioxide. Ten females were selected and placed in a 250 ml plastic cup, retained with a net lid, provided with a 10% sucrose solution soaked in a cotton wool bung and held under culturing environmental conditions.
(§7) After twenty four hours, impregnated polymer sheets (measuring about 150 mm in diameter and about 0.1 mm in thickness) were removed from storage and wrapped around the glazed side of an 11 cm ceramic tile and held in place with an elastic band. A cup of the pre-selected mosquitoes were again lightly anaesthetised with carbon dioxide and transferred from the holding cup to the base of a 9 cm plastic Petri dish. The relevant impregnated polymer sheet was placed over the Petri dish and held in place with an elastic band. Once the mosquitoes had recovered from the anaesthetic, ca. 1 minute, the impregnated polymer sheet was placed on a holding rack, such that treated side was at an angle of […] to the horizontal.
(§8) After one hour an assessment of mosquito knockdown was made. A mosquito was said to be knocked down if it was unable to right itself once it had fallen over. The mosquitoes were lightly anaesthetised again, and removed from the Petri dish exposure chamber and returned to the holding cups. The mosquitoes were supplied with a 10% sucrose solution soaked in a cotton wool bung and held under culturing environmental conditions. An assessment of mortality was made 24 hours after exposure. A mosquito was said to be dead if it is unable to right itself once it had fallen over.

Anopheles stephensi = experiment: as above; details: AI content 2 wt %; for mortality: 24 hours after exposure; for knock-down: after one hour
Text: as §5, §6, §7, §8

An. stephensi [4] = experiment: Example B4: cross resistance study, 6-well plate
Procedure: (§9) In each study, a set of plates were infested with a known insecticide susceptible strain of mosquitoes from the same genera as the resistant strains.
(§10) Assessment of the knockdown after 60 minutes and mortality after 24 hours was carried out. Each treatment was replicated a minimum of four times, with the mean knockdown or mortality recorded.
(§11) A comparison of the knockdown and mortality of the resistant strain of mosquitoes was made to that of the susceptible to identify evidence of cross resistance.

An. Gambiae Kisumu rdl = experiment: Example B4: cross resistance study, 6-well plate
Procedure: as §9, §10, §11

An. Gambiae Kisumu sus [5] = experiment: Example B4: cross resistance study, 6-well plate
Procedure: as §9, §10, §11

An. Arabiensis Moz sus = experiment: Example B4: cross resistance study, 6-well plate
Procedure: as §9, §10, §11

An. Gambiae Tiassalé [6] = experiment: Example B4: cross resistance study, 6-well plate
Procedure: as §9, §10, §11

Ae. Aegypti New Orleans = experiment: Example B4: cross resistance study, 6-well plate
Procedure: as §9, §10, §11

Ae. aegypti Caymon = experiment: Example B4: cross resistance study, 6-well plate
Procedure: as §9, §10, §11

CC1(C)C(C=C(Cl)Cl)C1C(=O)OCc1cccc(Oc2ccccc2)c1 (centres unmarked) [Permethrin, reference compound]
Knockdown (%) at 15 mins (An. stephensi [1]; 20 ppm, bottle, An. stephensi): 97%
Knockdown (%) at 60 mins (An. stephensi [1]; 20 ppm, bottle, An. stephensi): 100%
mortality at 20 ppm (An. stephensi [1]; Anopheles stephensi): 100%
Knockdown (%) at 15 mins (An. Gambiae Kisumu sus [2]; 20 ppm, bottle): 100%
Knockdown (%) at 60 mins (An. Gambiae Kisumu sus [2]; 20 ppm, bottle): 100%
mortality at 20 ppm (An. Gambiae Kisumu sus [2]; Anopheles gambiae, 20 ppm, bottle, one hour exposure, after 24 hours): 100%
mortality at 25 ppm (An. Gambiae Kisumu sus [2]; Anopheles gambiae, Table B5b, after 24 hours): 99%
mortality at 25 ppm (An. Gambiae Kisumu sus [2]; Anopheles gambiae, Table B5c, after 24 hours): 100%
mortality at 25 ppm (FUMOZ; Table B5b): 24%
mortality at 25 ppm (FUMOZ; Table B5c): 46%
Knockdown (%) at 15 mins (An. Gambiae Tiassalé [3]; 20 ppm, bottle, Tiassalé): 50%
Knockdown (%) at 60 mins (An. Gambiae Tiassalé [3]; 20 ppm, bottle, Tiassalé): 99%
mortality at 20 ppm (An. Gambiae Tiassalé [3]; Anopheles gambiae): 85%
mortality at 25 ppm (VK7; Table B5b): 3%
mortality at 25 ppm (VK7; Table B5c): 4%
mortality (Aedes aegypti; HDPE): 97%
knock-down (Aedes aegypti; HDPE): 100%
mortality (Aedes aegypti; LDPE): 100%
knock-down (Aedes aegypti; LDPE): 100%
mortality (Aedes aegypti; PP): 80%
knock-down (Aedes aegypti; PP): 87%
mortality (Anopheles stephensi; HDPE, polymer 4 to 6 weeks old): 70%
knock-down (Anopheles stephensi; HDPE, polymer 4 to 6 weeks old): 100%
mortality (Anopheles stephensi; HDPE, polymer 6 to 8 weeks old): 97%
knock-down (Anopheles stephensi; HDPE, polymer 6 to 8 weeks old): 100%
mortality (Anopheles stephensi; LDPE, polymer 4 to 6 weeks old): 100%
knock-down (Anopheles stephensi; LDPE, polymer 4 to 6 weeks old): 100%
mortality (Anopheles stephensi; LDPE, polymer 6 to 8 weeks old): 100%
knock-down (Anopheles stephensi; LDPE, polymer 6 to 8 weeks old): 100%
mortality (Anopheles stephensi; PP, polymer 4 to 6 weeks old): 23%
knock-down (Anopheles stephensi; PP, polymer 4 to 6 weeks old): 100%
mortality (Anopheles stephensi; PP, polymer 6 to 8 weeks old): 67%
knock-down (Anopheles stephensi; PP, polymer 6 to 8 weeks old): 100%
Knockdown (An. stephensi [4]; 2.50 ppm, after 60 minutes, An. stephensi): 85%
mortality at 2.5 ppm (An. stephensi [4]; Anopheles stephensi, 24 h): 100%
Knockdown (An. Gambiae Kisumu rdl; 2.50 ppm, after 60 minutes, Kisumu rdl): 100%
mortality at 2.5 ppm (An. Gambiae Kisumu rdl; Anopheles gambiae, 24 h): 100%
Knockdown (An. Gambiae Kisumu sus [5]; 2.50 ppm, after 60 minutes, Kisumu sus): 100%
mortality at 2.5 ppm (An. Gambiae Kisumu sus [5]; Anopheles gambiae, 24 h): 100%
Knockdown (An. Arabiensis Moz sus; 2.50 ppm, after 60 minutes, Moz sus): 75%
mortality at 2.5 ppm (An. Arabiensis Moz sus; Anopheles arabiensis, 24 h): 100%
Knockdown (An. Gambiae Tiassalé [6]; 2.50 ppm, after 60 minutes, Tiassalé): 5%
mortality at 2.5 ppm (An. Gambiae Tiassalé [6]; Anopheles gambiae, 24 h): 14%
Knockdown (Ae. Aegypti New Orleans; 2.50 ppm, after 60 minutes, New Orleans): 91%
mortality at 2.5 ppm (Ae. Aegypti New Orleans; Aedes aegypti, 24 h): 100%
Knockdown (Ae. aegypti Caymon; 2.50 ppm, after 60 minutes, Caymon): 0%
mortality at 2.5 ppm (Ae. aegypti Caymon; Aedes aegypti, 24 h): 45%
